Experiment [1] concerns the target T1, Endothelin receptor type B (Rattus norvegicus) (UniProt P21451).
T1 sequence (whole entry): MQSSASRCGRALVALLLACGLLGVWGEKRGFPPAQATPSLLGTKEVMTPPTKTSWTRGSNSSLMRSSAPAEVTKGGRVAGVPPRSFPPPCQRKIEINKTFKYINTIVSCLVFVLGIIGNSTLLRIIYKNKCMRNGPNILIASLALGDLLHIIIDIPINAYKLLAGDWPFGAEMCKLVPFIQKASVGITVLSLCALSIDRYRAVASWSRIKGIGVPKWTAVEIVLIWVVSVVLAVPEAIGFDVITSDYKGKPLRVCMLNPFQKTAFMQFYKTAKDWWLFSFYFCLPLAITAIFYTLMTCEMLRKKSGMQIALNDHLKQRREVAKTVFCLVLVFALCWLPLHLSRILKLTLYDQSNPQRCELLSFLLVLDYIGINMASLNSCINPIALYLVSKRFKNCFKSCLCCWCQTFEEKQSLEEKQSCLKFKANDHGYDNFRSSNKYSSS
The experiment is described as follows: Concentration required to produce 50% inhibition of binding against ET B receptor obtained from rat brain membrane.

Experiment [2] addresses T2, Endothelin-1 receptor (Rattus norvegicus) (UniProt P26684).
T2 sequence (whole entry): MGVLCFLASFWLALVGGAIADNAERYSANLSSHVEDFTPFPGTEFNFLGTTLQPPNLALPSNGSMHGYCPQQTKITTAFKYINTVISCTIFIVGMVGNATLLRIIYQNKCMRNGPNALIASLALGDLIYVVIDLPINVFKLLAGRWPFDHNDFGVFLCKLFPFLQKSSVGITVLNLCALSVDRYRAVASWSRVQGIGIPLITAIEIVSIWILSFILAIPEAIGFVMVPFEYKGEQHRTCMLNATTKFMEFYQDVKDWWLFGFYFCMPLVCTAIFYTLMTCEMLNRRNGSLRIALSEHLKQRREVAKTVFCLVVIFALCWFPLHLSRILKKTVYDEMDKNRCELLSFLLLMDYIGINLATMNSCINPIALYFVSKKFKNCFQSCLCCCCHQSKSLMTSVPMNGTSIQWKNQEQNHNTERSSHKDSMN
The experiment in a line: Concentration required to produce 50% inhibition of binding against ET A receptor obtained from rat thoracic aortic membrane.

Each structure is given as a SMILES string.

Regarding `CC[C@@H](C)[C@H](NC(=O)[C@H](CC(=O)O)NC(=O)[C@H](CC(C)C)NC(=O)[C@H](Cc1c[nH]cn1)NC(=O)[C@H](CS)NC(=O)[C@H](Cc1ccccc1)NC(=O)[C@H](Cc1ccc(O)cc1)NC(=O)[C@@H](NC(=O)[C@H](CS)NC(=O)[C@H](CCC(=O)O)NC(=O)[C@H](CCCCN)NC(=O)[C@H](CC(=O)O)NC(=O)[C@H](CCSC)NC(=O)[C@H](CC(C)C)NC(=O)[C@H](CO)NC(=O)[C@H](CO)NC(=O)[C@H](CS)NC(=O)[C@H](CO)NC(=O)[C@@H](N)CS)C(C)C)C(=O)N[C@H](C(=O)N[C@@H](Cc1c[nH]c2ccccc12)C(=O)O)C1CCCCC1`, the pIC50 was 10 in experiment [1] and 9.88 in experiment [2].
On to `CC[C@@H](C)[C@H](NC(=O)[C@H](CC(=O)O)NC(=O)[C@H](CC(C)C)NC(=O)[C@H](Cc1c[nH]cn1)NC(=O)[C@H](CS)NC(=O)[C@H](Cc1ccccc1)NC(=O)[C@H](Cc1ccc(O)cc1)NC(=O)[C@@H](NC(=O)[C@H](CS)NC(=O)[C@H](CCC(=O)O)NC(=O)[C@H](CCCCN)NC(=O)[C@H](CC(=O)O)NC(=O)[C@H](CCSC)NC(=O)[C@H](CC(C)C)NC(=O)[C@H](CO)NC(=O)[C@H](CO)NC(=O)[C@H](CS)NC(=O)[C@H](CO)NC(=O)[C@@H](N)CS)C(C)C)C(=O)N[C@@H](Cc1c[nH]c2ccccc12)C(=O)N[C@@H](Cc1c[nH]c2ccccc12)C(=O)O`, for which the pIC50 in experiment [1] came out at 9.77; in experiment [2], 6.71.
The matching figures for `CC[C@@H](C)[C@H](NC(=O)[C@H](CC(=O)O)NC(=O)[C@H](CC(C)C)NC(=O)[C@H](Cc1c[nH]cn1)NC(=O)[C@H](CS)NC(=O)[C@H](Cc1ccccc1)NC(=O)[C@H](Cc1ccc(O)cc1)NC(=O)[C@@H](NC(=O)[C@H](CS)NC(=O)[C@H](CCC(=O)O)NC(=O)[C@H](CCCCN)NC(=O)[C@H](CC(=O)O)NC(=O)[C@H](CCSC)NC(=O)[C@H](CC(C)C)NC(=O)[C@H](CO)NC(=O)[C@H](CO)NC(=O)[C@H](CS)NC(=O)[C@H](CO)NC(=O)[C@@H](N)CS)C(C)C)C(=O)N[C@H](Cc1ccccc1)C(=O)N[C@@H](Cc1c[nH]c2ccccc12)C(=O)O`: 8.6 and 6.07.

The term pIC50 denotes the IC50 on a negative log10 scale, so that one unit is a factor of ten.

These data come from ChEMBL document CHEMBL1127286, “Quantitative structure-activity relationships study of endothelin-1 analogs” (Bioorg Med Chem Lett, 1994).
